Assays:
4T1 cells = test: 4T1 proliferation assay (MTS); type: cell-based, mouse
Calu6 = Calu6 proliferation assay; type: cell-based, human
Description: Proliferation assays with fibroblasts were done in low-glucose DMEM containing 1% FBS, with or without 10 ng/ml bFGF, or 100 ng/ml human EGF and the assay was ended at day 3. ARPE-19 cells were gently lifted with 0.025% trypsin and plated in RtEGM media (Clonetics) containing 2% FBS, L-glutamine, human bFGF and GA-1000. Once cells were attached to plates, serum-free RtEGM media was used to maintain the cultures. For proliferation assays, 1500 human RPE cells were plated into 96-well plates in low-glucose DMEM containing 1% FBS. A673, U87MG, Calu6 and AML12 cells were grown until confluent and were then harvested and re-suspended in appropriate assay media. For proliferation assays, cells were plated at the density of 1000-2000 cells/well in low-glucose DMEM containing 5% FBS or otherwise stated. Bovine pituitary cells (pituitary folliculostellate cells) were isolated as previously described. For proliferation assays with human epidermal keratinocytes, human DMVECs and human dermal fibroblast cells, 1000 cells/well were plated in low-glucose DMEM containing 1% FBS with or without various growth factors. The assay was ended at day 3 for bovine pituitary cells and at day 4 for all the other cell types. […] Four days later, tumor cell growth was measured by the MTS assay (Promega, Madison, WI), a colorimetric assay that measures metabolic activity of viable cells. […]

VEGFR2 = test: VEGF/VEGFR2 expression, cell surface amount and VEGFR2 activation in BCECs; type: cell-based, bovine
Description: Cells were allowed to reach 80% confluency in 12-well plates. […] At various time points, plates were taken out of the incubator and kept on ice. Cell monolayers were first washed once with ice-cold PBS before lysis with 250 μl of Pierce RIPA buffer (ThermoFisher Scientific, Rockford, IL) or use 50 mM Tris-HCl (pH 7.6), 150 mM NaCl, 10% Glycerol, 1% NP-40 containing protease/Phosphatase inhibitor cocktail (100×) (Cell signaling, #5872). Lysates were collected and mixed with 4×Bolt LDS Sample Buffer (Novex, Carlsbad, CA) in the presence of Halt protease inhibitors and phosphatase inhibitor cocktail (ThermoFisher scientific, #NP0007). The samples were subjected to SDS-PAGE (Bolt 4-12% Bis-Tris Plus, Invitrogen) using Bolt MES SDS running buffer or NuPAGE 3-8% Tris-Acetate gel using Tris-Acetate SDS running buffer (Novex). HUVECs (passage 6-8) were plated in EBM-2 basal medium (Lonza) with 0.2% FBS. […] Equal amounts of protein lysates were analyzed by SDS-PAGE and blotted with the indicated antibodies. Proteins were transferred using Tris-Glycine buffer with 20% Methanol (Proteonomics grade) (Apex BioResearch Products). Membranes were first incubated with 5% milk in TBST, pH 7.6 (TEKnova, Hollister, CA), followed by blotting with primary and secondary antibodies. ECL anti-rabbit IgG, horseradish peroxidase linked whole antibody from donkey or sheep anti-mouse were obtained from GE Healthcare (UK limited). SuperSignal West Dura Extended Duration substrate was from ThermoFisher Scientific. In some cases, the same PVDF membranes were stripped by 8-min incubation in the Restore Plus Western Blot Stripping Buffer (ThermoFisher Scientific) to show total specific protein expression, followed by second stripping for β-actin expression. BCECs were plated in 10 cm cell culture dishes 3 days prior to the cell surface protein isolation. Cells were washed three times with Dulbecco's PBS with CaCl2 and MgCl2, followed by a 30 min incubation with EZ-Link Sulfo-NHS-SS-Biotin (Pierce, Rockford, IL, USA; 0.5 mg/ml in Dulbecco) on ice. […] For cell lysis 500 […]1 of lysis buffer (2% NP-40, 1% Triton X-100, 10% glycerol, 100 uM oxidized glutathione, EDTA free protease inhibitor tablet (Roche, Mannheim, Germany) in PBS was added to the cells. Lysed cell extracts were scraped off the plates and transferred to an Eppendorf tube followed by incubation on ice on a shaker for 30 mins. The cell extracts were incubated with 30 U of DNase (22° C. 50 mins, Roche, Mannheim, Germany) and centrifuged for 20 mins (20,800×g, at 4° C.) to pellet the insoluble material. The protein concentration of the supernatants was determined. Equal amounts of protein ( 2 mg) from each extract were used for cell surface protein isolation. […]

[1] = tested on: human retinal microvascular EC (hRMECs); test: hRMEC proliferation assay; type: cell-based
Description: Proliferation assays with BCECs and BRECs were performed. Log-phase growing BCECs or BRECs (passage <10) were trypsinized, re-suspended and seeded in 96-well plates (no coating) in low-glucose DMEM supplemented with 10% bovine calf serum, 2 mM glutamine, and antibiotics (growth medium), at a density of 1200-1500 cells per well in 200 μl volume. All reagents were added at the indicated final concentrations. After 3-6 days, cells were incubated with AlamarBlue for 4 hrs. Fluorescence was measured at 530 nm excitation wavelength and 590 nm emission wavelength. The experiments were repeated at least three times. To create a hypoxic condition, cells were placed in a hypoxia incubator with a mixture of gas consisting of 1% 02, 5% CO2 and 94% Nz. On each 96-well plate, untreated and VEGF-treated (10/ng/ml) wells were included to monitor plate-to-plate variations. 20% methanol or 0.05% DMSO served as negative controls. 0.05% DMSO served as negative controls when Cas was tested in these cells. Human RMVECs and human adult DMVECs were split into Gelatin-coated 96 wells (2000 cells per well) in low glucose DMEM containing 10% FBS. 1200 cells/well was set up for proliferation assay in low glucose media containing FBS. Data was collected at day 4 or 5. HUVEC (p7-10) were grown on gelatin-coated plate until it reached 70-80% confluency.

N[C@H](C=O)[C@@H](O)[C@H](O)[C@H](O)CO [ManN, 2-Amino-2-deoxy-D-mannose]
growth of 4T1 (4T1 cells): did not promote growth
toxicity on 4T1 cells (4T1 cells; at 5 mM): significant toxicity
growth of Calu6 (Calu6): did not promote growth
amount of VEGFR2 on cell surface (biotinylation) (VEGFR2): no changes in the amount of VEGFR2 on cell surface
transcription of VEGF, VEGFR2, GLUT1 & 4 and total VEGFR2 protein expression (VEGFR2; 4 hours (gene) or 24 hours (protein)): neither transcription of VEGF, VEGFR2 and GLUT1 & 4 nor total VEGFR2 protein expression was significantly changed
VEGFR2 phosphorylation in response to VEGF (VEGFR2; ManN pre-treated cells): decreased
ligand-independent VEGFR2 activation (VEGFR2; after ManN addition): No ligand-independent VEGFR2 activation occurred
additivity with VEGF on proliferation [1]: dose-dependent additivity with VEGF
toxicity ([1]; at 5 mM): minimal toxicity
